Data taken from patent US9453053B2, “Short peptides for enhancing muscle function” (UNIVERSITAT HEIDELBERG, priority 2010, dated 2016).
“Also recorded” adds a separate entry of the source. Ends that are not written are not given here.

How the values were obtained:
[1] = tested on: isolated rat ventricular cardiomyocytes; format: cell-based; conditions: for increase in the calcium transient amplitude over control cells, functional equivalence compared to S100A1ct6/11: FIG. 26, 2 Hz, peptides added 30 min before assessment; for effect on calcium transient amplitudes: FIG. 25, field-stimulated (1 Hz) isolated rat ventricular cardiomyocytes
[2] = tested on: adult intact cardiomyocytes or skeletal muscle fibers; assay: Calcium homeostasis in adult intact cardiomyocytes or skeletal muscle fibers; format: cell-based; conditions: adult intact (non-permeabilized) cardiomyocytes or skeletal muscle fibers
[3] = tested on: permeabilized EDL murine skeletal muscle fibers; assay: Isometric twitch force in permeabilized skeletal muscle fibers; format: cell-based, mouse
Protocol: Muscle Fiber Preparation and Experimental Solutions. All of the animals were handled according to the guidelines of the animal care committee of the University of Heidelberg. Male BALB/c mice (3-6-months-old) were sacrificed by an overdose of carbon dioxide, and muscle fiber preparation was carried out as previously described (Fink R. H. and Stephenson D. G., 1987, Pflugers Arch. Eur. J. Physiol. 409:374-380; Makabe M. et al., 1996, Pflugers Arch. Eur. J. Physiol. 432: 717-726). Either EDL (M. ext. dig. longum) or Soleus was isolated, and a small fiber bundle containing two to four single fibers (between 80 and 150 μm in diameter and 3-4-mm-long) was dissected in paraffin oil. […] The free ion concentrations were calculated with the computer program REACT (version 2.0) from G. L. Smith (Glasgow, Scotland). […]
It was shown that both, the full-length S100A1 protein as well as the C-terminal fragment, has a potency to enhance isometric twitch force in permeabilized murine skeletal muscle fibers (FIG. 7). […] Maximum force was measured in the high activating solution at pCa 4.28 and 5 mM caffeine. […] Several control transients were recorded before the fiber was exposed to the S100A1 protein or the S100A1 peptide mixture (N/H/C) or the C-terminal 20-mer alone, and the experiment was repeated as outlined above. […]

RyR2 = target: T1, RyR2 (Oryctolagus cuniculus, UniProt P30957); assay: Ca2+-spark frequency in permeabilized cardiomyocytes; format: cell-based, rabbit
T1 construct: Adult ventricular rabbit cardiomyocytes were isolated from four different animals; endogenous in cells; host or cells: adult ventricular rabbit cardiomyocytes, permeabilized with beta-escin
T1 sequence (P30957 whole entry): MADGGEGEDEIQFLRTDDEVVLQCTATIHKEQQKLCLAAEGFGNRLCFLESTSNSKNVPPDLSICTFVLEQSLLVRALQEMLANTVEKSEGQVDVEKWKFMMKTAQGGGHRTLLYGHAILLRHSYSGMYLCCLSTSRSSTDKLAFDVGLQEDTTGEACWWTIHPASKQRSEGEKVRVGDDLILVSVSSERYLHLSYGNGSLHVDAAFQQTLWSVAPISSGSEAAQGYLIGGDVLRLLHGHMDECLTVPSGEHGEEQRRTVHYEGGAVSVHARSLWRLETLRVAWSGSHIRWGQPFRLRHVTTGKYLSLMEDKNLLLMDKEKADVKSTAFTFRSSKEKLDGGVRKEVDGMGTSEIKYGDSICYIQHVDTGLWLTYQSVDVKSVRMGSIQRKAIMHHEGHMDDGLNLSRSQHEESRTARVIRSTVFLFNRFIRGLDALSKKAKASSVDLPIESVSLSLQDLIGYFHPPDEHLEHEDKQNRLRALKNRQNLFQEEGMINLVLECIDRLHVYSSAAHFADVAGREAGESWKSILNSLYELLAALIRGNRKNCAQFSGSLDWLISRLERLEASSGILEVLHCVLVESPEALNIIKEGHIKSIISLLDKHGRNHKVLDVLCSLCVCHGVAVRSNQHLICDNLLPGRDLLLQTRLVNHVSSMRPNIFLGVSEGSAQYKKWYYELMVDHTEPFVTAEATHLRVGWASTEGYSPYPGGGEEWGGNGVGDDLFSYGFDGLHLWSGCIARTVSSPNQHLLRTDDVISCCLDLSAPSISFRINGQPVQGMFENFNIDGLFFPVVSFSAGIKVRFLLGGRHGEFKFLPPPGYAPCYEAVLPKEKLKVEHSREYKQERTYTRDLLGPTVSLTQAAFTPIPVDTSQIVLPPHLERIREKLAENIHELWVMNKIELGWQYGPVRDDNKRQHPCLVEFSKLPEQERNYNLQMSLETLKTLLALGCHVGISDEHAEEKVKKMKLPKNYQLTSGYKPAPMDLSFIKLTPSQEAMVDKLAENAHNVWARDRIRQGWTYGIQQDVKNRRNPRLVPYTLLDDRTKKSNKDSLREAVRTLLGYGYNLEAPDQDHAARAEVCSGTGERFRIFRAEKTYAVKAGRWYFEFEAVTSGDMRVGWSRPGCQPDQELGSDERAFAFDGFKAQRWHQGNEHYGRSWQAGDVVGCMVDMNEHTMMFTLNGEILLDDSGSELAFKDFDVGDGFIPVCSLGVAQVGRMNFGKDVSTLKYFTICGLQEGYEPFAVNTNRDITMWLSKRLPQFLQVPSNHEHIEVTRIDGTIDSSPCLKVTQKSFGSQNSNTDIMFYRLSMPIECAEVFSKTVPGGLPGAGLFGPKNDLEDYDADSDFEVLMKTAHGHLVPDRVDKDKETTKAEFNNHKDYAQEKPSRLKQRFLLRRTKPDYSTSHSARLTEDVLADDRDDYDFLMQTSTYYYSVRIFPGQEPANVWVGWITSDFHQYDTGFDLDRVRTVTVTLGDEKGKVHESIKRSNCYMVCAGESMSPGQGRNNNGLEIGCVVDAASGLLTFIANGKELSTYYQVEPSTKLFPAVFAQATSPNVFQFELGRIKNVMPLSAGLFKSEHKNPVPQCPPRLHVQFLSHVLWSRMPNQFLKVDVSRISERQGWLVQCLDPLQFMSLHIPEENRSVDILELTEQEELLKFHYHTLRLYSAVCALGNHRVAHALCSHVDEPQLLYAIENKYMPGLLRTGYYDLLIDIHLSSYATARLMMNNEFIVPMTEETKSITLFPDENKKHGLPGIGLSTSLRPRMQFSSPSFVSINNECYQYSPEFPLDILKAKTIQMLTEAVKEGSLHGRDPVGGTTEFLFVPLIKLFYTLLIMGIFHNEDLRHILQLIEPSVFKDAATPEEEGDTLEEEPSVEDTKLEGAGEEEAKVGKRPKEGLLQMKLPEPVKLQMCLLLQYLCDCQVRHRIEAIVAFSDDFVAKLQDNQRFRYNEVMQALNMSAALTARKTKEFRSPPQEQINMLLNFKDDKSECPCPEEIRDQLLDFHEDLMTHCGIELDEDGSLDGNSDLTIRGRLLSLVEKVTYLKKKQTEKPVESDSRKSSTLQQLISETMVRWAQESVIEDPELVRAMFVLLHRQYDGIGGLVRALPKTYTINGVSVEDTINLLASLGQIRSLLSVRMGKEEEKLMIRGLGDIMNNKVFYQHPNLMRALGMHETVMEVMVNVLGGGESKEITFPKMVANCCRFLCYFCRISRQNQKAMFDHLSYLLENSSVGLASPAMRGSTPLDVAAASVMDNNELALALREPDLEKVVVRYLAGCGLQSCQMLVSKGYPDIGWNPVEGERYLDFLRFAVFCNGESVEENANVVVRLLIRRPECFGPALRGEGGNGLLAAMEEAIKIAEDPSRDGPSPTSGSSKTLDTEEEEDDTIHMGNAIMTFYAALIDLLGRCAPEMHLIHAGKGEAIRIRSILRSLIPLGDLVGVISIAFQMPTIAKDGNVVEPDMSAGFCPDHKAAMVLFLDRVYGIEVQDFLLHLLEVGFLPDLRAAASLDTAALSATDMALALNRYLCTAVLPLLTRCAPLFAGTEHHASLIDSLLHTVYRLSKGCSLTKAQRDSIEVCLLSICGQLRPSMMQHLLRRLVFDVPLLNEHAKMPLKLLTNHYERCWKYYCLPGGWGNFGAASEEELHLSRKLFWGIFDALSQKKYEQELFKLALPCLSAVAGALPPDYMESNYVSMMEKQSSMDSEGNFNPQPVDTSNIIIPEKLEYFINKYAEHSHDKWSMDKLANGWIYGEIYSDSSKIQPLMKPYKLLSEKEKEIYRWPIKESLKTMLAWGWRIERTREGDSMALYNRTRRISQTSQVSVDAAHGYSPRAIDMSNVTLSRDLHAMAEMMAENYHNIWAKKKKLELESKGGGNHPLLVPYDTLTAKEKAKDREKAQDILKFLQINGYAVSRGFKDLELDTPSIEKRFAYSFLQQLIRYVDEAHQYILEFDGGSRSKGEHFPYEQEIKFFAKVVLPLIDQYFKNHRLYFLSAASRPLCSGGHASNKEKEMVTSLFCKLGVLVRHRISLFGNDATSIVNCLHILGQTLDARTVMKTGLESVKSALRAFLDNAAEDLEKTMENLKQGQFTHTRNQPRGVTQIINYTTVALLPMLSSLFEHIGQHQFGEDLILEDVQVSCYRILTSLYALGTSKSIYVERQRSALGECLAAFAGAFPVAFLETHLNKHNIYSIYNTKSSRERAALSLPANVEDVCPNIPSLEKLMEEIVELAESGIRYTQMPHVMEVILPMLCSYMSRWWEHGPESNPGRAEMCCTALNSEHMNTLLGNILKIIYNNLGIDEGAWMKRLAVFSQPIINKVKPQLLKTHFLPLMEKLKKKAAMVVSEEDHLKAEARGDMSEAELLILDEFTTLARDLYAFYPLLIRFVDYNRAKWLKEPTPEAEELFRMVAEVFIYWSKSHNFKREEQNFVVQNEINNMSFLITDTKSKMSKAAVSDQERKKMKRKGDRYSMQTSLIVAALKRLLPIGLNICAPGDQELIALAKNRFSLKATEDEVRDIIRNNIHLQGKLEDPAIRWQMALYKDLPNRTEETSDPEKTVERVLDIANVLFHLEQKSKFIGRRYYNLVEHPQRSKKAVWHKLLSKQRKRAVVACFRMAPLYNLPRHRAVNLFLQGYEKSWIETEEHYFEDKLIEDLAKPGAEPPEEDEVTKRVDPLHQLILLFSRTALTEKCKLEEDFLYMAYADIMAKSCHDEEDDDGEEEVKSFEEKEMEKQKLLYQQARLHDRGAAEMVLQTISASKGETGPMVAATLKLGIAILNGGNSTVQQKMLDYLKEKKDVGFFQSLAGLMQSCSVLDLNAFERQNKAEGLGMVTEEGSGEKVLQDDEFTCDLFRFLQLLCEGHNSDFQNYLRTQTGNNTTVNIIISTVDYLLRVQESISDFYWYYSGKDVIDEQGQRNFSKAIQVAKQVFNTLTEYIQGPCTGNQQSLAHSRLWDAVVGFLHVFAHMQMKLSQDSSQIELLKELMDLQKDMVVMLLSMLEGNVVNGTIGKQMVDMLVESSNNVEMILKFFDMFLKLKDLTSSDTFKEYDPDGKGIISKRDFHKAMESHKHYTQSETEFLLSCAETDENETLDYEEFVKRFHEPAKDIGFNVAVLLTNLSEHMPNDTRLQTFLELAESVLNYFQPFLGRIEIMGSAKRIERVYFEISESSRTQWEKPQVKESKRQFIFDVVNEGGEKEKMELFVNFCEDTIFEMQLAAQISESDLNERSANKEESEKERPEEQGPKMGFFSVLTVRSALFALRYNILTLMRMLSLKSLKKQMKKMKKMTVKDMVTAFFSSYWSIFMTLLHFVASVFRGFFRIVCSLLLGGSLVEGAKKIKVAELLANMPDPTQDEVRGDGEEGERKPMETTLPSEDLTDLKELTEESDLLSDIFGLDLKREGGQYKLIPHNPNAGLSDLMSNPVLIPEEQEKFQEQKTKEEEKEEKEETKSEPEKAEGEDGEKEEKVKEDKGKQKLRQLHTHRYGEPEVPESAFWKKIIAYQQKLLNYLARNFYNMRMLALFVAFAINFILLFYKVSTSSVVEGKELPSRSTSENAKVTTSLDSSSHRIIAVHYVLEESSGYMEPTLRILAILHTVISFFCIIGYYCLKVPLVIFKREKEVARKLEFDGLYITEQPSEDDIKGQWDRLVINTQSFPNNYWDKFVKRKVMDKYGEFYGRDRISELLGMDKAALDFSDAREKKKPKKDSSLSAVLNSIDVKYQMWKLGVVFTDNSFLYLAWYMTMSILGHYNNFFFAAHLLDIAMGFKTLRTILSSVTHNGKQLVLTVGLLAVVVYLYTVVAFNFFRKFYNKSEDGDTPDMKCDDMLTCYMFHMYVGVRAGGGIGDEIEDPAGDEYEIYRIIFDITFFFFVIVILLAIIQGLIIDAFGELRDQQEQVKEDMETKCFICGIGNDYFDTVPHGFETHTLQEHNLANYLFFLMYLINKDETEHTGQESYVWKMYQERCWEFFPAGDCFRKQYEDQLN
Protocol: Adult ventricular rabbit cardiomyocytes were isolated from four different animals as previously described (Loughrey C. M. et al., 2004, J. Physiol. 556:919-934) and permeabilized using β-escin (0.1 mg/ml). The permeabilized cells were incubated for 1 minute with rhodamine-labeled human S100A1 protein (0.1 μM) or FITC-labeled S100A1 C-terminal 20-mer peptide (0.1 μM) fused to a hydrophilic element (i.e. amino acids 75 to 94 of human S100A1 fused to the hydrophilic element D-K-D-D-P-P (SEQ ID NO: 17)). Cells were monitored using a Bio-Rad 2000 laser scanning confocal microscope (LSCM). A striated staining pattern can be observed that resembles the ryanodine staining pattern (FIG. 4).
Furthermore, Ca^2+-spark frequency has been assessed in the permeabilized cells treated with S100A1 protein or the S100A1 C-terminal 20-mer peptide fused to a hydrophilic element and it was shown that both, the full-length protein as well as the C-terminal fragment, decrease calcium spark frequency in permeabilized cardiomyocytes (FIGS. 5 and 6). […] Fluo-3 free acid (10 μM) present in the perfusing solution was excited at 488 nm (Kr-laser) and measured at >515 nm applying epifluorescence optics of an inverted microscope with a ×60-1.2 NA water-immersion objective lens. Fluorescence was acquired in line scan mode at 2 ms line^−1; pixel dimension was 0.3 μm (512 pixels scan^−1; zoom=1.4). […]

Substance | increase in the calcium transient amplitude over control cells, functional equivalence compared to S100A1ct6/11 [1] | effect on calcium transient amplitudes [1] | also measured
D-K-D-D-P-P-V-V-L-V-A-A-L-T-V (DKDDPPVVLVAALTV; Functional peptide (Fig. 26)) [76-84] | full functional equivalence | – | –
YVVLVAALTVACNNFFWENS (SEQ ID NO: 39) (YVVLVAALTVACNNFFWENS; amino acids 75 to 94 of human S100A1) [20-mer S100A1 C-terminal peptide, amino acids 75-94 of human S100A1, reference compound] | – | – | calcium homeostasis [2]: does not alter; isometric twitch force [3]: enhances; also recorded: equivalent biological potency to enhance isometric force; diastolic calcium spark frequency and RyR2 activity (RyR2): decreases
DKDDPPYVVLVAALTVA [S100A1ct6/11, D-K-D-D-P-P-Y-V-V-L-V-A-A-L-T-V-A (SEQ ID NO: 42)] | – | – | EC50 [1]: 87 ± 6 nM
D-K-D-D-P-P-V-V-L-V-A-A-L-T (DKDDPPVVLVAALT; Functional peptide (Fig. 26)) [76-83] | partial functional equivalence | – | –
D-K-D-D-P-P-V-L-V-A-A-L-T-V-A (DKDDPPVLVAALTVA; Functional peptide (Fig. 26)) [77-85] | partial functional equivalence | abolishes the inotropic effect | –
S100A1 protein: native human S100A1 protein, 94 amino acids, SEQ ID NO: 38; recombinant, rhodamine-labeled for imaging | – | – | calcium homeostasis [2]: does not alter; isometric twitch force [3]: enhances; also recorded: equivalent biological potency to enhance isometric force; diastolic calcium spark frequency and RyR2 activity (RyR2): decreases
D-K-D-D-P-P (DKDDPP; hydrophilic motif) [hydrophobic element, 6-mer hydrophilic motif tested alone as control, reference compound] | – | do not exhibit the inotropic effect | –
D-K-D-D-P-P-V-A-A-L-T-V-A (DKDDPPVAALTVA; Functional peptide (Fig. 26)) [79-85] | partial functional equivalence | abolishes the inotropic effect | –
D-K-D-D-P-P-L-V-A-A-L-T-V-A (DKDDPPLVAALTVA) [N-78-85-C] | – | abolishes the inotropic effect | –
D-K-D-D-P-P-V-V-L-V-A-A-L (DKDDPPVVLVAAL; Functional peptide (Fig. 26)) [76-82] | partial functional equivalence | – | –
